Test [1] deals with Mitogen-activated protein kinase 14 (Homo sapiens, UniProt Q16539). Further details: species or system Escherichia coli.
Test [2] concerns the target T1, Amine oxidase [flavin-containing] A (Homo sapiens, UniProt P21397).
T1 sequence (P21397 whole entry): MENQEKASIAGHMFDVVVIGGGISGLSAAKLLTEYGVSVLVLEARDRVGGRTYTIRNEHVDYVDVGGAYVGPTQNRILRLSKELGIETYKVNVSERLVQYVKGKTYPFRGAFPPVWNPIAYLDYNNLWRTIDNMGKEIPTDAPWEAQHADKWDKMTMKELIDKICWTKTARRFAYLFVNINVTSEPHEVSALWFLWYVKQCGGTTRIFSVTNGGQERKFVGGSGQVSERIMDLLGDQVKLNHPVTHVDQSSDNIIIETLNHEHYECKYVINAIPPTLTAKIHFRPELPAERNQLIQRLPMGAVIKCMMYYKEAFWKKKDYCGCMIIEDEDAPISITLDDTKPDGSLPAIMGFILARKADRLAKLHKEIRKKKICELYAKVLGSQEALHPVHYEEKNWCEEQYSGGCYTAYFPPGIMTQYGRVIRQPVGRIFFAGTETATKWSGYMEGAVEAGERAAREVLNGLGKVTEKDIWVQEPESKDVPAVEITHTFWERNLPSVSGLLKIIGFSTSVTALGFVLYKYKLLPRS
Briefly: DRUGMATRIX: Monoamine Oxidase MAO-A enzyme inhibition (substrate: Kynuramine). Set-up: species or system BTI-TN-5B1-4. The conditions noted are these: Not Active = under 50% inhibition at 10 µM.

Test [3] is described as follows: DRUGMATRIX: beta-Lactamase enzyme inhibition (substrate: Nitrocefin). The conditions noted are these: Not Active = under 50% inhibition at 10 µM. Set-up: species or system Bacillus cereus.
Test [4] is described as follows: DRUGMATRIX: Phosphodiesterase PDE3 enzyme inhibition (substrate: [3H]cAMP + cAMP). It is filed as tissue-based, Homo sapiens. The conditions noted are these: platelet; Not Active = under 50% inhibition at 10 µM.
For test [5], the target named is Kappa-type opioid receptor (Homo sapiens, UniProt P41145). Briefly: DRUGMATRIX: Opiate kappa (OP2, KOP) radioligand binding (ligand: [3H] Diprenorphine). The class given is cell membranes, HEK293, Membrane. The following applies: hek293; Not Active = under 50% inhibition at 10 µM.
Chain of Kappa-type opioid receptor (P41145 whole entry): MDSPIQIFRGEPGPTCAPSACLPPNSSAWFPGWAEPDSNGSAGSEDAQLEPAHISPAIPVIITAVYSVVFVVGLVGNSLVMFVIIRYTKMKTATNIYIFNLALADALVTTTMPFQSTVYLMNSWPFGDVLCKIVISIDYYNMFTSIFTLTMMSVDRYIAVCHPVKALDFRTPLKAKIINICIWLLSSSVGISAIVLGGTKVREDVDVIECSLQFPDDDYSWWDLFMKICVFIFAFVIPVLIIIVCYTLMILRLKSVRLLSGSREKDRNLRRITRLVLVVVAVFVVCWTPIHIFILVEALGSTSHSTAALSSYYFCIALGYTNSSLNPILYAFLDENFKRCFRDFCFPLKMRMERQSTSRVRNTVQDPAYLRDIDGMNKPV
The target of test [6] is T2, 5-hydroxytryptamine receptor 1A (Rattus norvegicus, UniProt P19327). Also: in other assays of this panel Not Active means under 50% inhibition at 10 µM.
T2 sequence (P19327 whole entry): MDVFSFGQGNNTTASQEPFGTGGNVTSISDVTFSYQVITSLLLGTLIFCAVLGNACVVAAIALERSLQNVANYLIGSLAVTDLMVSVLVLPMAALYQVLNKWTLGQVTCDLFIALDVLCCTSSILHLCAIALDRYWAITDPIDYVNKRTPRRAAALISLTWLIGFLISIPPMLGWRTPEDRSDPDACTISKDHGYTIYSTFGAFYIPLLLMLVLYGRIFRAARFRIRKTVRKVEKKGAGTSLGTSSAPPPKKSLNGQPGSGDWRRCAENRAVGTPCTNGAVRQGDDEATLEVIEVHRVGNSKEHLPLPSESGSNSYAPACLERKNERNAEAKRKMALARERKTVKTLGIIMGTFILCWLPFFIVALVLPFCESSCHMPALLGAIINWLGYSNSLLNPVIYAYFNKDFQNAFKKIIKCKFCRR
It is filed as cell membranes, CHO-K1, Membrane. The conditions noted are these: cho-k1.

The target of test [7] is T3, Cysteinyl leukotriene receptor 1 (Homo sapiens, UniProt Q9Y271). Also: in other assays of this panel Not Active means under 50% inhibition at 10 µM.
T3 sequence (Q9Y271 whole entry): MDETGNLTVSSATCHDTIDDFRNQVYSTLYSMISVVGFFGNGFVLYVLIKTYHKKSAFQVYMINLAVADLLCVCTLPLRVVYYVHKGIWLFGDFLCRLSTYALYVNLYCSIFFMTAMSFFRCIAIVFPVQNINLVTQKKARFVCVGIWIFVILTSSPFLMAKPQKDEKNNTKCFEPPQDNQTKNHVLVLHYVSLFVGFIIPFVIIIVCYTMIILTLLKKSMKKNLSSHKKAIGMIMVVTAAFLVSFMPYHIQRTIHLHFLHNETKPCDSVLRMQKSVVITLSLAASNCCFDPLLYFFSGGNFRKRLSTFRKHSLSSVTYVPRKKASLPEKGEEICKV
It is filed as cell membranes, CHO-K1, Membrane. The conditions noted are these: cho-k1.

Chain of Mitogen-activated protein kinase 14 (Q16539 whole entry): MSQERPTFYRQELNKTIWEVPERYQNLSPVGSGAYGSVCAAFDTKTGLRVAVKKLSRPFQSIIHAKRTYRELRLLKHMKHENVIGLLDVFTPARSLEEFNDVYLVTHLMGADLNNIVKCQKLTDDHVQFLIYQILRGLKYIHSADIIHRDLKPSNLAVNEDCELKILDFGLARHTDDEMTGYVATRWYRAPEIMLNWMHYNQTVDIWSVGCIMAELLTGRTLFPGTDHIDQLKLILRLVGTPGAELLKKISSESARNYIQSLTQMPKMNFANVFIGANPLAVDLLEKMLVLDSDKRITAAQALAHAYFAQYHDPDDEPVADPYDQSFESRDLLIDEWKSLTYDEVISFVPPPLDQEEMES

`Cc1oncc1C(=O)Nc1ccc(C(F)(F)F)cc1` [LEFLUNOMIDE]: the IC50 result in test [1] was “Not Active”; in test [2] (read-out: IC50) it was 20.7 µM; in test [3] it was “Not Active”; in test [4], “Not Active”; in test [5], “Not Active”; in test [6], “Not Active”. Further, the IC50 entry in test [7] is “Not Active”. Also, the Ki entry in test [3] and in test [4] was “Not Active” in each case.

Consider `N#CC(C#N)=Cc1ccc(O)c(O)c1` [TYRPHOSTIN 23], for which the IC50 result in test [1], in test [2] (bti-tn-5b1-4), in test [3], in test [4], in test [5] and in test [6] was “Not Active” throughout. In addition, the IC50 entry in test [7] is reported as “Not Active”. In addition, the Ki result in test [3] and in test [4] was “Not Active” each time.

(Values after ChEMBL document CHEMBL1909046, “DrugMatrix in vitro pharmacology data”.)
